Results published in publication PMC5198511 (Molecular Pharmacology, 2017).

How the values were obtained:
LogD7.4 measurement = assay type: physicochemical; conditions: 1-octanol/phosphate buffer, pH 7.4
[1] = Immobilized artificial membrane chromatography; assay type: physicochemical; conditions: IAM chromatography, pH 7.4

- logD (LogD7.4 measurement): < -0.8
- log KIAM [1]: −0.09
SMILES: CCNC(=O)[C@H]1O[C@@H](n2cnc3c(N)nc(NCCc4ccc(CCC(=O)O)cc4)nc32)[C@H](O)[C@@H]1O [Compound 3ac]
